The target of this assay is T1, protein kinase Cα (PKCα) (Homo sapiens, UniProt P17252).
T1 construct: isolate and photo-release endogenous PKCα from the undiluted detergent fractionated HeLa cell extracts; endogenous in cells; host or cells: HeLa cells (ATCC)
In words: Phorbol ester (PMA) mediated PKCα sub-cellular translocation, measured by kinase activity after isolation with photocleavable antibodies. In kind it is cell-based. The settings on record: cultured HeLa cells stimulated with 200 nM PMA for 5 min, detergent-fractionated, relative distribution based on kinase activity, n=4. The method, then:
FIG. 20. Phorbol ester (PMA) mediated protein kinase Cα (PKCα) sub-cellular translocation as measured by functional activity following isolation with photocleavable antibodies. Cultured HeLa cells were stimulated with 200 nM PMA for 5 min and detergent fractionated into the cytosol and membrane compartments prior to isolation and purification with the photocleavable antibodies.
Cultured HeLa cells (ATCC; Manassas, Va.) were stimulated for 5 min with 200 nM Phorbol-12-Myristate-13-Acetate (PMA; EMD Biosciences, Inc., San Diego, Calif.) and subsequently detergent fractionated into sub-cellular compartments according to reported procedures [Ramsby et al. (1994) Electrophoresis 15, 265-277; Ramsby & Makowski. (1999) Methods Mol Biol 112, 53-66; Chiang et al. (2000) J Biochem Biophys Methods 46, 53-68]. PMA is a potent activator of PKCα and is well known to cause translocation of the kinase from the cytosolic to the membrane sub-cellular compartments [Ross & Joyner. (1997) Endothelium 5, 321-332; Bazan & Rapoport. (1996) J Pharmacol Toxicol Methods 36, 87-95; Yazlovitskaya & Melnykovych. (1995) Cancer Lett 88, 179-183]. […]

`CCCCCCCCCCCCCC(=O)O[C@@H]1[C@@H](C)[C@@]2(O)[C@@H](C=C(CO)C[C@]3(O)C(=O)C(C)=C[C@@H]23)[C@@H]2C(C)(C)[C@]12OC(C)=O` [PMA, Phorbol-12-Myristate-13-Acetate]: under “baseline 21±2% membrane”, the “PKCα distribution, membrane” value stood at 84±3%. The “PKCα distribution, cytosol” value (baseline 79±7% cytosol) turned out to be 16±4%.
